In US10271557B2, “Composition comprising a bacteriocin and an extract from a plant of the Labiatae family” (DUPONT NUTRITION BIOSCIENCES APS, priority 2003, dated 2019):

Assays:
[1] = tested on: L. monocytogenes strain S23; assay: MIC in Bioscreen after 24 h at 30° C. in laboratory medium; format: cell-based, Listeria monocytogenes; details: alone
Experimental: (§1) A 100,000 ppm GRE09 solution was prepared in water and filter sterilised (0.2 μm). Further dilutions were prepared in sterile deionised water at 1,250-20,000 ppm. Brain Heart Infusion broth (Oxoid) was prepared and GRE09 stock solutions were added to give the following test solutions of GRE09; 125, 250, 500, 750, 1000, 1250, 1500, 2000 ppm. […] A fully automated microbial growth analyser was used to determine microbial growth curves (Microbiology Reader Bioscreen C analyser linked to a PC with installed software BioLink v 5.30; Labsystem Oy, Finland). Tests were prepared in honeycomb 2 (HC 2) microtitre/cuvette plates with a capacity of 100 wells per plate. The wells were loaded with 270 μl of the prepared media and inoculated at a level of 10^3 CFU (colony forming units)/ml with 30 μl of microbial suspension. Incubation time and temperature was as appropriate for the test organism. This test allowed suitable test levels for the compounds to be determined. The rosemary extract and nisin were then tested in combination, using the same procedure. […] GRE09 solutions were prepared at 250, 500 and 1000 ppm as above. Combinations of all these test levels were prepared and tested in the Bioscreen as before.
(§2) Growth curves of Listeria monocytogenes and B. cereus strains in laboratory media were analysed as described above using the Bioscreen C analyser. […]

[2] = tested on: B. cereus Campden spores; assay: as above; format: cell-based, Bacillus cereus; details: alone
Experimental: as §1, §2

[3] = tested on: Listeria monocytogenes and B. cereus strains; assay: In vitro synergy with nisin in Bioscreen, 24 h at 30° C.; format: cell-based, Listeria monocytogenes; Bacillus cereus; details: combined with nisin
Experimental: Growth curves of Listeria monocytogenes and B. cereus strains in laboratory media were analysed as described above using the Bioscreen C analyser. Minimal inhibitory concentrations (MIC) were determined for the test compounds used singly or in combination after 24 h at 30° C. […] These had been prepared by selected extraction with either organic solvents or CO2 to obtain extracts containing 28% phenolic diterpenes (28RE; Danisco) and a rosemary extract containing 6% rosmarinic acid (6RA; Danisco).

[4] = tested on: Listeria monocytogenes strains 272, CRA3930 and NCTC12426; assay: Kill of Listeria in chicken soup at 20° C. with nisin and rosemary extract components; format: cell-based; details: FIGS. 4 and 5
Experimental: The chicken soup model was used as before. The following samples were tested: GRE09, deodorised rosemary extracts containing 28% or 70% phenolic diterpenes (RE28 and RE70; Danisco), a water soluble rosemary extract containing 6% rosmarinic acid (6RA; Danisco) and pure rosmarinic acid (RA; Sigma). Additions to the soup were made as appropriate. The soup was pasteurised (70° C./2 minutes), the pH recorded and the soup was then inoculated with a cocktail of Listeria cells prepared as described before. The tests were incubated at 20° C. and viable count enumeration performed after 0, 2, 4 and 24 h at 20° C. Initial Listeria levels were 1.3×10^5 CFU/ml. The test was repeated at two nisin levels and over different time periods. The pH of the soup without addition was pH 6.06-6.20.

SMILES | MIC in Bioscreen after 24 h at 30° C., individual components [1] [% RA] | MIC in Bioscreen after 24 h at 30° C., individual components [2] [% RA] | effect of the substance on nisin activity (synergy) in laboratory medium [3] | synergy with nisin in achieving kill of Listeria cells [4]
O=C(/C=C/c1ccc(O)c(O)c1)O[C@H](Cc1ccc(O)c(O)c1)C(=O)O [RA, rosmarinic acid] | 1 | 1 | Enhanced nisin activity | evident but not as strong
CC(O)CO (centres unmarked) [propylene glycol] | – | – | did not enhance nisin activity | –
